Assay results from ChEMBL document CHEMBL1159271, “A reinvestigation of Maprounea triterpenes” (J Nat Prod, 1995).
Activity calls are given as the source filed them. No cut-off for these calls is given here.

Key:
[1] = target: T1, Human immunodeficiency virus type 1 reverse transcriptase (Human immunodeficiency virus 1, UniProt Q72547); assay: Inhibition of HIV1 recombinant reverse transcriptase by UIC assay
[2] = target: T1, Human immunodeficiency virus type 1 reverse transcriptase; assay: Inhibition of HIV1 recombinant reverse transcriptase by NCI assay
Rattus norvegicus = species on record: Rattus norvegicus; assay: Displacement of [3H]phorbol dibutyrate from rat brain membrane; type: tissue-based

IC50 [1] [µM]	IC50 [2] [µM]	Activity (Rattus norvegicus)	SMILES
4.9	–	–	CC1(C)CC[C@]2(C(=O)O)CC=C3[C@]4(C)CC[C@H]5C(C)(C)[C@@H](O)C[C@@H](O)[C@]5(C)[C@H]4CC[C@@]3(C)[C@H]2C1
3.7	> 100	Active	CC1(C)CC[C@]2(C(=O)O)CC=C3[C@]4(C)CC[C@H]5C(C)(C)[C@@H](OC(=O)c6ccc(O)cc6)C[C@@H](O)[C@]5(C)[C@H]4CC[C@@]3(C)[C@H]2C1
3.4	> 100	–	CC1(C)CC[C@]2(C(=O)O)CC=C3[C@]4(C)CC[C@H]5C(C)(C)C[C@H](O)[C@@H](O)[C@]5(C)[C@H]4CC[C@@]3(C)[C@H]2C1
14.4	> 200	–	CC1(C)CC[C@]2(C(=O)O)CC=C3[C@]4(C)CC[C@H]5C(C)(C)[C@@H](OC(=O)c6ccc(O)cc6)[C@H](O)C[C@]5(C)[C@H]4CC[C@@]3(C)[C@H]2C1
15	40	–	CC1(C)CC[C@]2(C(=O)O)CC=C3[C@]4(C)CC[C@H]5C(C)(C)[C@H](O)[C@@H](OC(=O)c6ccc(O)cc6)C[C@]5(C)[C@H]4CC[C@@]3(C)[C@H]2C1

Continued, molecule first:

SMILES	IC50 [1] [µM]	IC50 [2] [µM]	Activity (Rattus norvegicus)
CC1(C)CC[C@]2(C(=O)O)CC=C3[C@]4(C)CC[C@H]5C(C)(C)[C@@H](OC(=O)/C=C/c6ccc(O)cc6)CC[C@]5(C)[C@H]4CC[C@@]3(C)[C@H]2C1	11.5	60	–
CC1(C)CC[C@]2(C(=O)O)CC=C3[C@]4(C)CC[C@H]5C(C)(C)[C@@H](O)[C@H](OC(=O)c6ccc(O)cc6)C[C@]5(C)[C@H]4CC[C@@]3(C)[C@H]2C1	52	> 200	–
CC1(C)CC[C@]2(C(=O)O)CC=C3[C@]4(C)CC[C@H]5C(C)(C)[C@@H](OC(=O)c6ccc(O)cc6)CC[C@]5(C)[C@H]4CC[C@@]3(C)[C@H]2C1	10.6	200	–
CC1(C)CC[C@]2(C(=O)O)CC=C3[C@]4(C)CC[C@H]5C(C)(C)[C@@H](OC(=O)c6ccc(O)cc6)[C@H](OC(=O)c6ccc(O)cc6)C[C@]5(C)[C@H]4CC[C@@]3(C)[C@H]2C1	7.9	60	–
